Laboratory results from patent US9546152B2 (MERCK SHARP & DOHME CORP., priority 2012, dated 2017).

Legend:
human orexin-2 receptor [1] = target: T1, human orexin-2 receptor (Homo sapiens (Human), UniProt O43614); assay: FLIPR Ca2+ Flux Assay, orexin-2 receptor; assay type: cell-based; conditions: CHO cells expressing the human orexin-2 receptor; agonist 70 pM Ala-6,12 human orexin-A; read-out: hOX2R FLIPR IC50
Protocol: (§1) In a typical experiment the OX1 and OX2 receptor antagonistic activity of the compounds of the present invention was determined in accordance with the following experimental method. For intracellular calcium measurements, Chinese hamster ovary (CHO) cells expressing the rat orexin-1 receptor or the human orexin-2 receptor, are grown in Iscove's modified DMEM containing 2 mM L-glutamine, […], 1% hypoxanthine-thymidine supplement, 100 U/ml penicillin, 100 μg/ml streptomycin and 10% heat-inactivated fetal calf serum (FCS). The cells are seeded at 20,000 cells/well into Becton-Dickinson black 384-well clear bottom sterile plates coated with poly-D-lysine. All reagents were from GIBCO-Invitrogen Corp. The seeded plates are incubated overnight at 37° C. and 5% CO2. Ala-6,12 human orexin-A as the agonist is prepared as a 1 mM stock solution in 1% bovine serum albumin (BSA) and diluted in assay buffer (HBSS containing 20 mM HEPES, 0.1% BSA and 2.5 mM probenecid, pH7.4) for use in the assay at a final concentration of 70 pM. Test compounds are prepared as 10 mM stock solution in DMSO, then diluted in 384-well plates, first in DMSO, then assay buffer. On the day of the assay, cells are washed 3 times with 100 μl assay buffer and then incubated for 60 min (37° C., 5% CO2) in 60 μl assay buffer containing 1 μM Fluo-4AM ester, 0.02% pluronic acid, and 1% BSA. The dye loading solution is then aspirated and cells are washed 3 times with 100 μl assay buffer. 30 μl of that same buffer is left in each well. Within the Fluorescent Imaging Plate Reader (FLIPR, Molecular Devices), test compounds are added to the plate in a volume of 25 μl, incubated for 5 min and finally 25 μl of agonist is added. Fluorescence is measured for each well at 1 second intervals for 5 minutes and the height of each fluorescence peak is compared to the height of the fluorescence peak induced by 70 pM Ala-6,12 orexin-A with buffer in place of antagonist. […] Alternatively, compound potency can be assessed by a radioligand binding assay (described in Bergman et. al. Bioorg. Med. Chem. Lett. 2008, 18, 1425-1430) in which the inhibition constant (Ki) is determined in membranes prepared from CHO cells expressing either the OX1 or OX2 receptor. The intrinsic orexin receptor antagonist activity of a compound which may be used in the present invention may be determined by these assays.

human orexin-2 receptor [2] = target: T1, human orexin-2 receptor; assay: radioligand binding assay, orexin-2 receptor; conditions: membranes prepared from CHO cells expressing the OX2 receptor; read-out: hOX2R BIND hKi
Protocol: as §1

rat orexin-1 receptor = rat orexin-1 receptor (Rattus norvegicus (Rat), UniProt P56718); assay: FLIPR Ca2+ Flux Assay, orexin-1 receptor; assay type: cell-based; conditions: CHO cells expressing the rat orexin-1 receptor; agonist 70 pM Ala-6,12 human orexin-A; read-out: hOX1R FLIPR IC50
Protocol: as §1

T1 sequence (O43614 whole entry): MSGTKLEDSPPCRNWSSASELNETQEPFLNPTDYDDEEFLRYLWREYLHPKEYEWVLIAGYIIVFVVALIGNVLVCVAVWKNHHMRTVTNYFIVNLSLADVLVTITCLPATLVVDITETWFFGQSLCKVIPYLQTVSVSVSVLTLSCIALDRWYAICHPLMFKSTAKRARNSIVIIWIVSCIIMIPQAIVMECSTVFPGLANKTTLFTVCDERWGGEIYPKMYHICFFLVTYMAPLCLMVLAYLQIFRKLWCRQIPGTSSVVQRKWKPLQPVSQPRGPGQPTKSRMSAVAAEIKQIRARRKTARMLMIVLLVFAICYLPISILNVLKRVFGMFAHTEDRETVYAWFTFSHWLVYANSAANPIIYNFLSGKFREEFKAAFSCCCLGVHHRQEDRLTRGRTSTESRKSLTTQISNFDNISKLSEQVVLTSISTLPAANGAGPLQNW
Sequence of rat orexin-1 receptor (P56718 whole entry): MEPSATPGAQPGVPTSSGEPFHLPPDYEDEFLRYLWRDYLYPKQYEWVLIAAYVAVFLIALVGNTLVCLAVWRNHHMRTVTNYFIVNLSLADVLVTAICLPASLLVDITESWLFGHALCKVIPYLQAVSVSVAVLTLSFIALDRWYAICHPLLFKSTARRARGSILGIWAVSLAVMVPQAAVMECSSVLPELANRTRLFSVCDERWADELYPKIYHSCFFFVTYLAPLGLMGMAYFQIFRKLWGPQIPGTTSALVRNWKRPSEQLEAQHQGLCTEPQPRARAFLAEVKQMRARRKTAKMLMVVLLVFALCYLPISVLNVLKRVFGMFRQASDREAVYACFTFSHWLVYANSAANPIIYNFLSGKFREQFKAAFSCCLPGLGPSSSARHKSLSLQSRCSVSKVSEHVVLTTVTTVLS

Structure (SMILES)	IC50 (human orexin-2 receptor [1])	Ki (human orexin-2 receptor [2])	IC50 (rat orexin-1 receptor)
COc1cccc(-n2nccn2)c1C(=O)N1C[C@H](Oc2nccc(C#N)c2C)CC[C@H]1C [Example 14, 2-{[(3R,6R)-1-{[2-methoxy-6-(2H-1,2,3-triazol-2-yl)phenyl]carbonyl}-6-methylpiperidin-3-yl]oxy}-3-methylpyridine-4-carbonitrile]	15 nM	0.2 nM	507 nM
Cc1cccc(-n2nccn2)c1C(=O)N1C[C@H](Oc2nccc(C#N)c2C)CC[C@H]1C [Example 15, 3-methyl-2-{[(3R,6R)-6-methyl-1-{[2-methyl-6-(2H-1,2,3-triazol-2-yl)phenyl]carbonyl}piperidin-3-yl]oxy}pyridine-4-carbonitrile]	12 nM	0.2 nM	693 nM
Cc1c(C#N)ccnc1O[C@@H]1CC[C@@H](C)N(C(=O)c2ccccc2C2CC2)C1 [Example 16, 2-({(3R,6R)-1-[(2-cyclopropylphenyl)carbonyl]-6-methylpiperidin-3-yl}oxy)-3-methylpyridine-4-carbonitrile]	9 nM	0.7 nM	1740 nM
Cc1c(C#N)ccnc1O[C@@H]1CC[C@@H](C)N(C(=O)c2ccccc2C(F)(F)F)C1 [Example 17, 3-methyl-2-{[(3R,6R)-6-methyl-1-{[2-(trifluoromethyl)phenyl]carbonyl}piperidin-3-yl]oxy}pyridine-4-carbonitrile]	21 nM	3.1 nM	4960 nM
CCOc1ccccc1C(=O)N1C[C@H](Oc2nccc(C#N)c2C)CC[C@H]1C [Example 19, 2-({(3R,6R)-1-[(2-ethoxyphenyl)carbonyl]-6-methylpiperidin-3-yl}oxy)-3-methylpyridine-4-carbonitrile]	6 nM	0.7 nM	2100 nM
Cc1c(C#N)ccnc1O[C@@H]1CC[C@@H](C)N(C(=O)c2c(F)cccc2-c2cscn2)C1 [Example 22, 2-{[(3R,6R)-1-{[2-fluoro-6-(1,3-thiazol-4-yl)phenyl]carbonyl}-6-methylpiperidin-3-yl]oxy}-3-methylpyridine-4-carbonitrile]	20 nM	0.3 nM	991 nM
Cc1c(C#N)ccnc1O[C@@H]1CC[C@@H](C)N(C(=O)c2ncccc2-c2cscn2)C1 [Example 24, 3-methyl-2-{[(3R,6R)-6-methyl-1-{[3-(1,3-thiazol-4-yl)pyridin-2-yl]carbonyl}piperidin-3-yl]oxy}pyridine-4-carbonitrile]	24 nM	3.8 nM	4900 nM
Cc1c(C#N)ccnc1O[C@@H]1CC[C@@H](C)N(C(=O)c2cc(F)ncc2-c2cncs2)C1 [Example 25, 2-{[(3R,6R)-1-{[2-fluoro-5-(1,3-thiazol-5-yl)pyridin-4-yl]carbonyl}-6-methylpiperidin-3-yl]oxy}-3-methylpyridine-4-carbonitrile]	43 nM	6.1 nM	> 10000 nM
Cc1c(C#N)ccnc1O[C@@H]1CC[C@@H](C)N(C(=O)c2cc(F)ccc2-c2cscn2)C1 [Example 26, 2-{[(3R,6R)-1-{[5-fluoro-2-(1,3-thiazol-4-yl)phenyl]carbonyl}-6-methylpiperidin-3-yl]oxy}-3-methylpyridine-4-carbonitrile]	10 nM	0.6 nM	967 nM
Cc1c(C#N)ccnc1O[C@@H]1CC[C@@H](C)N(C(=O)c2cc(F)ccc2-c2nccs2)C1 [Example 28, 2-{[(3R,6R)-1-{[5-fluoro-2-(1,3-thiazol-2-yl)phenyl]carbonyl}-6-methylpiperidin-3-yl]oxy}-3-methylpyridine-4-carbonitrile]	5 nM	0.1 nM	412 nM
Cc1c(C#N)ccnc1O[C@@H]1CC[C@@H](C)N(C(=O)c2ccccc2N2CCCC2)C1 [Example 29, 3-methyl-2-({(3R,6R)-6-methyl-1-[(2-pyrrolidin-1-ylphenyl)carbonyl]piperidin-3-yl}oxy)pyridine-4-carbonitrile]	29 nM	3.4 nM	3100 nM
Cc1c(C#N)ccnc1O[C@@H]1CC[C@@H](C)N(C(=O)c2ccccc2Oc2ccccc2)C1 [Example 30, 3-methyl-2-({(3R,6R)-6-methyl-1-[(2-phenoxyphenyl)carbonyl]piperidin-3-yl}oxy)pyridine-4-carbonitrile]	46 nM	2.3 nM	> 10000 nM
Cc1c(C#N)ccnc1O[C@@H]1CC[C@@H](C)N(C(=O)c2ccsc2-c2cscn2)C1 [Example 31, 3-methyl-2-{[(3R,6R)-6-methyl-1-{[2-(1,3-thiazol-4-yl)thiophen-3-yl]carbonyl}piperidin-3-yl]oxy}pyridine-4-carbonitrile]	11 nM	0.8 nM	2030 nM
Cc1c(C#N)ccnc1O[C@@H]1CC[C@@H](C)N(C(=O)c2ccsc2-c2nccs2)C1 [Example 32, 3-methyl-2-{[(3R,6R)-6-methyl-1-{[2-(1,3-thiazol-2-yl)thiophen-3-yl]carbonyl}piperidin-3-yl]oxy}pyridine-4-carbonitrile]	29 nM	0.7 nM	1880 nM
Cc1c(C#N)ccnc1O[C@@H]1CC[C@@H](C)N(C(=O)c2ccc(F)cc2-c2nccs2)C1 [Example 34, 2-{[(3R,6R)-1-{[4-fluoro-2-(1,3-thiazol-2-yl)phenyl]carbonyl}-6-methylpiperidin-3-yl]oxy}-3-methylpyridine-4-carbonitrile]	9 nM	0.2 nM	702 nM
Cc1c(C#N)ccnc1O[C@@H]1CC[C@@H](C)N(C(=O)c2cc(F)cnc2-c2nccs2)C1 [Example 35, 2-{[(3R,6R)-1-{[5-fluoro-2-(1,3-thiazol-2-yl)pyridin-3-yl]carbonyl}-6-methylpiperidin-3-yl]oxy}-3-methylpyridine-4-carbonitrile]	13 nM	0.3 nM	453 nM
Cc1c(C#N)ccnc1O[C@@H]1CC[C@@H](C)N(C(=O)c2ccccc2-c2cnn(C)c2)C1 [Example 36, 3-methyl-2-{[(3R,6R)-6-methyl-1-{[2-(1-methyl-1H-pyrazol-4-yl)phenyl]carbonyl}piperidin-3-yl]oxy}pyridine-4-carbonitrile]	20 nM	1.5 nM	2380 nM
Cc1c(C#N)ccnc1O[C@@H]1CC[C@@H](C)N(C(=O)c2sccc2-c2nccs2)C1 [Example 37, 3-methyl-2-{[(3R,6R)-6-methyl-1-{[3-(1,3-thiazol-2-yl)thiophen-2-yl]carbonyl}piperidin-3-yl]oxy}pyridine-4-carbonitrile]	11 nM	1.2 nM	2270 nM
Cc1c(C#N)ccnc1O[C@@H]1CC[C@@H](C)N(C(=O)c2sccc2-c2cscn2)C1 [Example 38, 3-methyl-2-{[(3R,6R)-6-methyl-1-{[3-(1,3-thiazol-4-yl)thiophen-2-yl]carbonyl}piperidin-3-yl]oxy}pyridine-4-carbonitrile]	11 nM	0.9 nM	1640 nM
Cc1c(C#N)ccnc1O[C@@H]1CC[C@@H](C)N(C(=O)c2ccsc2-n2nccn2)C1 [Example 39, 3-methyl-2-{[(3R,6R)-6-methyl-1-{[2-(2H-1,2,3-triazol-2-yl)thiophen-3-yl]carbonyl}piperidin-3-yl]oxy}pyridine-4-carbonitrile]	9 nM	0.7 nM	1510 nM
Cc1nnn(-c2ccccc2C(=O)N2C[C@H](Oc3nccc(C#N)c3C)CC[C@H]2C)n1 [Example 40, 3-methyl-2-{[(3R,6R)-6-methyl-1-{[2-(5-methyl-2H-tetrazol-2-yl)phenyl]carbonyl}piperidin-3-yl]oxy}pyridine-4-carbonitrile]	11 nM	0.6 nM	707 nM
Cc1nc(C(=O)N2C[C@H](Oc3nccc(C#N)c3C)CC[C@H]2C)c(-c2ccc(F)cc2)s1 [Example 41, 2-{[(3R,6R)-1-{[5-(4-fluorophenyl)-2-methyl-1,3-thiazol-4-yl]carbonyl}-6-methylpiperidin-3-yl]oxy}-3-methylpyridine-4-carbonitrile]	48 nM	4.6 nM	1200 nM
